Measurements as given in ChEMBL document CHEMBL5030557, “Tandem Repeat of a Short Human Chemerin-Derived Peptide and Its Nontoxic d-Lysine-Containing Enantiomer Display Broad-Spectrum Antimicrobial and Antitubercular Activities” (J Med Chem, 2021).
Values after ≈ are worked out from the molar mass of the structure shown. Active and inactive are the calls of the source. The calls are words filed in the database; no cut-off is given here. Where a SMILES comes first, the peptide text is derived from it.

Assays:
Pseudomonas aeruginosa [1] = experiment: Antimicrobial activity against Pseudomonas aeruginosa ATCC BAA-427 assessed as inhibition of bacterial growth by broth dilution method; type: functional
Staphylococcus aureus [2] = experiment: Antimicrobial activity against methicilin- resistant Staphylococcus aureus ATCC 33591 assessed as inhibition of bacterial growth by broth dilution method; type: functional
Klebsiella pneumoniae = experiment: Antimicrobial activity against Klebsiella pneumoniae ATCC 27736 assessed as inhibition of bacterial growth by broth dilution method; type: functional
Escherichia coli [3] = experiment: Antimicrobial activity against Escherichia coli ATCC 25922 assessed as inhibition of bacterial growth by broth dilution method; type: functional
Bacillus subtilis = experiment: Antimicrobial activity against Bacillus subtilis ATCC 6633 assessed as inhibition of bacterial growth by broth dilution method; type: functional
Staphylococcus aureus [4] = experiment: Antimicrobial activity against Staphylococcus aureus ATCC 25923 assessed as inhibition of bacterial growth by broth dilution method; type: functional
Staphylococcus aureus [5] = experiment: Antimicrobial activity against multidrug-resistant Staphylococcus aureus ATCC BAA-44 assessed as inhibition of bacterial growth by broth dilution method; type: functional
[6] = Retention time of the compound analysed by RP-HPLC analysis; type: physicochemical
Pseudomonas aeruginosa [7] = experiment: Antibacterial activity against Pseudomonas aeruginosa BAA 427 assessed as resistance development by measuring fold change in MIC after 30 passages with serially diluted peptides; type: functional
[8] = Hemolytic activity in human RBC measured after 40 mins; type: ADME, tissue-based, Erythrocyte; conditions: red blood cells (RBC)
Escherichia coli [9] = experiment: Antibacterial activity against Escherichia coli ATCC 25922 in presence of temperature ranging from 4 to 90 degC measured after 1 hr; type: functional
[10] = Disruption of membrane integrity in human RBC cells assessed as membrane damage at 150 uM incubated for 15 min by Alexa fluor-annexin V staining based assay (reference value: 0%); type: functional, Red blood cell; conditions: 0.25 h
Cell membrane [11] = experiment: Induction of membrane damage in Escherichia coli assessed as disruption of membrane integrity at 10 uM incubated for 30 min by propidium iodide staining based assay
Escherichia coli [12] = experiment: Antibacterial activity against Escherichia coli ATCC 25922 in presence of 4.5 mM KCl measured after 1 hr; type: functional
Escherichia coli [13] = experiment: Antibacterial activity against Escherichia coli ATCC 25922 in presence of 10 percent fresh human serum measured after 1 hr; type: functional
Escherichia coli [14] = experiment: Antibacterial activity against Escherichia coli ATCC 25922 in presence of 150 mM NaCl measured after 1 hr; type: functional
[15] = system: Mycobacterium tuberculosis; experiment: Anti-mycobacterial activity against Mycobacterium tuberculosis H37Ra assessed as growth inhibition at 16.13 uM relative to control; type: functional
[16] = Hemolytic activity in human RBC at 150 uM measured after 40 min by hemolysis assay relative to control; type: ADME, tissue-based, Erythrocyte; conditions: red blood cells (RBC), read-out: Activity
THP-1 = experiment: Cytotoxicity against human monocyte THP-1 cell line assessed as cell viability measured for 24 hrs using ELISA plate reader; type: cell-based; conditions: thp-1, 24 h
[17] = Acute toxicity in BALB/c mouse assessed as change in body weight at 20 mg/kg administered intravenously measured after 7 days; type: organism-based; conditions: in vivo, iv, 168 h, time 7 day
Escherichia coli [18] = experiment: Bactericidal activity against Escherichia coli ATCC 25922 assessed as bacterial killing at 5 times MIC measured after 60 min; type: functional, organism-based
[19] = Permeability of the compound in PC/PG lipid vesicles by spectrofluorometry; type: ADME
[20] = system: Mycolicibacterium smegmatis; experiment: Anti-mycobacterial activity against Mycobacterium smegmatis infected in human THP-1 cells assessed as reduction in CFU at 24.19 uM after 24 hrs; type: functional
[21] = system: Mycolicibacterium smegmatis; experiment: Anti-mycobacterial activity against Mycobacterium smegmatis assessed as reduction in CFU at 3 times MIC after 12 hrs; type: functional, organism-based
Pseudomonas aeruginosa [22] = experiment: Anti-infective activity in Pseudomonas aeruginosa infected BALB/c mouse liver assessed as reduction in bacterial growth at 10 mg/kg, ip after 12 hrs; type: functional, organism-based
Lipid bilayer = experiment: Induction of membrane depolarization in mammalian mimetic PC/Chol vesicles assessed as membrane permeabilization
[23] = Acute toxicity in BALB/c mouse assessed as survival at 20 mg/kg administered intravenously measured after 7 days; type: organism-based; conditions: in vivo, iv, 168 h, time 7 day
Pseudomonas aeruginosa [24] = experiment: Antibacterial activity against Pseudomonas aeruginosa infected in Balb/c mouse stomach assessed as animal survival at 10 mg/kg, ip after 7 days; type: functional; conditions: 168 h, time 7 day
Pseudomonas aeruginosa [25] = experiment: Antibacterial activity against Pseudomonas aeruginosa infected in Balb/c mouse stomach assessed as animal survival at 5 mg/kg, ip after 7 days; type: functional; conditions: 168 h, time 7 day
Pseudomonas aeruginosa [26] = experiment: Anti-infective activity in Pseudomonas aeruginosa infected BALB/c mouse liver assessed as reduction in bacterial growth at 10 mg/kg, ip after 18 hrs; type: functional, organism-based
Cell membrane [27] = experiment: Inner membrane permeability of the compound in Escherichia coli ATCC 25922 by ONPG assay; type: ADME, subcellular
Pseudomonas aeruginosa [28] = experiment: Anti-infective activity in Pseudomonas aeruginosa infected BALB/c mouse spleen assessed as reduction in bacterial growth at 10 mg/kg, ip after 18 hrs; type: functional, organism-based
[29] = system: Mycolicibacterium smegmatis; experiment: Anti-mycobacterial activity against Mycobacterium smegmatis assessed as reduction in CFU at 3 times MIC after 24 hrs; type: functional, organism-based
Cell membrane [30] = experiment: Disruption of plasma membrane in Staphylococcus aureus ATCC 25923 at 10 uM by SYTOX-green uptake assay; type: cell membranes; conditions: TDE = time-dependent effect
[31] = Stability of the compound in human serum assessed as intact compound remaining at 2 mg/ml measured after 60 mins by […] analysis; type: ADME, cell-free; conditions: read-out: Stability
[32] = system: Mycolicibacterium smegmatis; experiment: Anti-mycobacterial activity against Mycobacterium smegmatis infected in human THP-1 cells assessed as reduction in CFU at 40.13 uM after 24 hrs; type: functional
[33] = system: Mycolicibacterium smegmatis; experiment: Anti-mycobacterial activity against Mycobacterium smegmatis assessed as growth inhibition at 16.13 uM relative to control; type: functional
Pseudomonas aeruginosa [34] = experiment: Anti-infective activity in Pseudomonas aeruginosa infected BALB/c mouse kidney assessed as reduction in bacterial growth at 10 mg/kg, ip after 12 hrs; type: functional, organism-based
Pseudomonas aeruginosa [35] = experiment: Anti-infective activity in Pseudomonas aeruginosa infected BALB/c mouse spleen assessed as reduction in bacterial growth at 10 mg/kg, ip after 12 hrs; type: functional, organism-based
Pseudomonas aeruginosa [36] = experiment: Anti-infective activity in Pseudomonas aeruginosa infected BALB/c mouse kidney assessed as reduction in bacterial growth at 10 mg/kg, ip after 18 hrs; type: functional, organism-based

In the case of `CC(C)C[C@H](NC(=O)[C@H](CCCNC(=N)N)NC(=O)CNC(=O)[C@H](CC(C)C)NC(=O)[C@@H](NC(=O)[C@@H](N)CCCCN)C(C)C)C(=O)N[C@H](C(N)=O)C(C)C` (H-KVLGRLV-NH2), the MIC (Pseudomonas aeruginosa [1]) is reported as over 100 µM, the MIC (Staphylococcus aureus [2]) is reported as over 100 µM and the MIC (Klebsiella pneumoniae) is reported as over 100 µM. For the same compound, the MIC (Escherichia coli [3]) was over 100 µM, the MIC (Bacillus subtilis) was over 100 µM and the MIC (Staphylococcus aureus [4]) was over 100 µM. The MIC (Staphylococcus aureus [5]) was over 100 µM and the Retention_time [6] was 8.1 min.

Work on `CCn1cc(C(=O)O)c(=O)c2cc(F)c(N3CCNCC3)cc21` [NORFLOXACIN] yielded an MIC (Pseudomonas aeruginosa [1]) of 1.22 µM (≈ 0.39 µg/mL), an MIC (Klebsiella pneumoniae) of 0.15 µM (≈ 0.0479 µg/mL) and an MIC (Staphylococcus aureus [4]) of 1.22 µM (≈ 0.39 µg/mL). The MIC (Staphylococcus aureus [5]) was 2.44 µM (≈ 0.779 µg/mL).

With GENTAMICIN the MIC (Pseudomonas aeruginosa [1]) was 1.35 µM, the MIC (Staphylococcus aureus [4]) was 0.67 µM and the MIC (Staphylococcus aureus [5]) was 1.35 µM. The fold change (FC) (Pseudomonas aeruginosa [7]) was 16.

`CC(C)C[C@H](NC(=O)[C@H](CCCNC(=N)N)NC(=O)CNC(=O)[C@H](CC(C)C)NC(=O)[C@@H](NC(=O)[C@H](CCCCN)NC(=O)[C@@H](NC(=O)[C@H](CC(C)C)NC(=O)[C@H](CCCNC(=N)N)NC(=O)CNC(=O)[C@H](CC(C)C)NC(=O)[C@@H](NC(=O)[C@H](N)CCCCN)C(C)C)C(C)C)C(C)C)C(=O)N[C@H](C(N)=O)C(C)C` showed an HC50 at 40 min [8] of 165 µM, an MIC (Escherichia coli [9]) of 2 µM and an Activity [10] of 99.1%. For the same compound, the MIC (Pseudomonas aeruginosa [1]) was 4 µM (≈ 6.2 µg/mL), the Activity (Cell membrane [11]) was “Active” and the MIC (Staphylococcus aureus [2]) was 1 µM (≈ 1.55 µg/mL). The MIC (Klebsiella pneumoniae) was 4 µM (≈ 6.2 µg/mL), the MIC (Escherichia coli [3]) was 0.5 µM (≈ 0.775 µg/mL) and the MIC (Escherichia coli [12]) was 4 µM. It also gave an MIC (Bacillus subtilis) of 2 µM (≈ 3.1 µg/mL), an MIC (Escherichia coli [13]) of 1 µM and an MIC (Staphylococcus aureus [4]) of 2 µM (≈ 3.1 µg/mL). For the same compound, the MIC (Staphylococcus aureus [5]) was 2 µM (≈ 3.1 µg/mL), the MIC (Escherichia coli [14]) was 2 µM and the Retention_time [6] was 18.8 min.

With `CN(C)[C@@H]1C(O)=C(C(N)=O)C(=O)[C@@]2(O)C(O)=C3C(=O)c4c(O)cccc4C(C)(O)[C@H]3C[C@@H]12` (some centres not stated) the “fold change (FC)” value (Pseudomonas aeruginosa [7]) was 16.

In the case of `CC(C)C[C@H](NC(=O)[C@H](CCCNC(=N)N)NC(=O)CNC(=O)[C@H](CC(C)C)NC(=O)[C@@H](NC(=O)[C@@H](CCCCN)NC(=O)[C@@H](NC(=O)[C@H](CC(C)C)NC(=O)[C@H](CCCNC(=N)N)NC(=O)CNC(=O)[C@H](CC(C)C)NC(=O)[C@@H](NC(=O)[C@@H](N)CCCCN)C(C)C)C(C)C)C(C)C)C(=O)N[C@H](C(N)=O)C(C)C`, the inhibition at 16.13 µM [15] is reported as 95%, the HC50 at 40 min [8] is reported as over 2000 µM and the MIC (Escherichia coli [9]) is reported as 2 µM. For the same compound, the hemolysis at 40 min, 150 µM [16] was 0%, the Activity (THP-1) was “Non-Toxic” and the Activity [10] was 2.1%. The Activity [17] was “Non-Toxic”, the Activity (Escherichia coli [18]) was “Active” and the Activity [19] was “Active”. The MIC (Pseudomonas aeruginosa [1]) was 4 µM (≈ 6.2 µg/mL), the inhibition at 24.19 µM [20] was 40% and the Activity (Cell membrane [11]) was “Active”. For the same compound, the MIC (Staphylococcus aureus [2]) was 2 µM (≈ 3.1 µg/mL), the MIC (Klebsiella pneumoniae) was 4 µM (≈ 6.2 µg/mL) and the Activity [21] was “Active”. The MIC (Escherichia coli [3]) was 1 µM (≈ 1.55 µg/mL), the MIC (Escherichia coli [12]) was 8 µM and the Activity (Pseudomonas aeruginosa [22]) was “Active”. For the same compound, the MIC (Bacillus subtilis) was 2 µM (≈ 3.1 µg/mL), the MIC (Escherichia coli [13]) was 2 µM and the Activity (Lipid bilayer) was “inactive”. For the same compound, the Activity [23] was “Toxic”, the MIC (Staphylococcus aureus [4]) was 1 µM (≈ 1.55 µg/mL) and the survival at 10 mg/kg (Pseudomonas aeruginosa [24]) was 80%. The survival at 5 mg/kg (Pseudomonas aeruginosa [25]) was 40%, the Activity (Pseudomonas aeruginosa [26]) was “Active” and the MIC (Staphylococcus aureus [5]) was 2 µM (≈ 3.1 µg/mL). The Activity (Cell membrane [27]) was “Active”, the “fold change (FC)” value (Pseudomonas aeruginosa [7]) was 2 and the Activity (Pseudomonas aeruginosa [28]) was “Active”. For the same compound, the Activity [29] was “Active”, the Activity (Cell membrane [30]) was “Tde” and the remaining at 1 h, 2 mg/ml [31] was 88%. The inhibition at 40.13 µM [32] was 80%, the MIC (Escherichia coli [14]) was 4 µM and the inhibition at 16.13 µM [33] was 95%. For the same compound, the Activity (Pseudomonas aeruginosa [34]) was “Active”, the Retention_time [6] was 14.6 min and the Activity (Pseudomonas aeruginosa [35]) was “Active”. The Activity (Pseudomonas aeruginosa [36]) was “Active”.
